For 20 compounds, T/C results are on record in PubChem BioAssay AID248 (DTP/NCI, 2004).

Several values for one entry are separate records, joined by “and”; a condition that tells them apart may be missing. Equal values may be shown once. Toxic doses and inconclusive results are not listed.

This assay has as its system L1210 leukemia ip in BDF1 mice, survival T/C. Kind of assay: NCI In Vivo Anticancer Drug Screen. Data for tumor model L1210 Leukemia (intraperitoneal) in B6D2F1 (BDF1) mice. To be noted: endpoint: mean survival time, higher = longer survival. The method in brief: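 Antitumor effect is assessed in tumor-bearing animals. Survival in the compound arm is compared with a vehicle-dosed control arm and expressed as their quotient.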

Setting [1] is: dose: 100.0 mg/kg/injection, schedule: Q04DX003 (ip), vehicle: Klucel (hydroxypropylcellulose) (HPC).
The mark [2] stands for this setting: dose: 200.0 mg/kg/injection, schedule: Q01DX009 (ip), vehicle: Klucel (hydroxypropylcellulose) (HPC).
Setting [3] is: dose: 200.0 mg/kg/injection, schedule: Q04DX003 (ip), vehicle: Klucel (hydroxypropylcellulose) (HPC).
[4] abbreviates: dose: 400.0 mg/kg/injection, schedule: Q04DX003 (ip), vehicle: Klucel (hydroxypropylcellulose) (HPC).
Where [5] appears, read: dose: 100.0 mg/kg/injection, schedule: Q04DX003 (ip), vehicle: saline with Tween-80.
The mark [6] stands for this setting: dose: 200.0 mg/kg/injection, schedule: Q04DX003 (ip), vehicle: saline with Tween-80.
[7] abbreviates: dose: 400.0 mg/kg/injection, schedule: Q04DX003 (ip), vehicle: saline with Tween-80.
Where [8] appears, read: dose: 100.0 mg/kg/injection, schedule: Q04DX002 (ip), vehicle: saline with Tween-80.
[9] abbreviates: dose: 200.0 mg/kg/injection, schedule: Q04DX002 (ip), vehicle: saline with Tween-80.

In the case of `COc1cc(NCCCCCNC(C)C)c2ncccc2c1`, the T/C (dose: 5.0 mg/kg/injection, schedule: Q04DX002 (ip), vehicle: saline with Tween-80) is 100 % of control; the T/C (dose: 10.0 mg/kg/injection, schedule: Q04DX002 (ip), vehicle: saline with Tween-80) was 97 % of control; the T/C (dose: 20.0 mg/kg/injection, schedule: Q04DX002 (ip), vehicle: saline with Tween-80) was 100 % of control.

For `CC(=O)CC(=O)Nc1cc(Cl)ccc1C`, the T/C is, setting by setting: under setting [1], 92 % of control; under setting [2], 92 % of control; under setting [3], 97 % of control; under setting [4], 92 % of control.

With `N#CSCc1ccccc1`, the T/C runs as follows: (dose: 75.0 mg/kg/injection, schedule: Q01DX001 (ip), vehicle: carboxymethylcellulose (CMC)) 118 % of control; under setting [1], 91 % of control; (dose: 150.0 mg/kg/injection, schedule: Q01DX001 (ip), vehicle: carboxymethylcellulose (CMC)) 98 % of control; under setting [3], 103 % of control; under setting [4], 94 % of control.

As for `COc1cc(C)c2c(c1)C(=O)OC2=O`, the T/C reads like this: (dose: 100.0 mg/kg/injection, schedule: Q01DX001 (ip), vehicle: Klucel (hydroxypropylcellulose) (HPC)) 105 % of control; under setting [1], 100 % of control; (dose: 200.0 mg/kg/injection, schedule: Q01DX001 (ip), vehicle: Klucel (hydroxypropylcellulose) (HPC)) 108 % of control; under setting [3], 103 % of control; (dose: 400.0 mg/kg/injection, schedule: Q01DX001 (ip), vehicle: Klucel (hydroxypropylcellulose) (HPC)) 111 % of control; under setting [4], 97 % of control.

For `COC(=O)CC(=O)OCC1C=CCC=C1`, the T/C runs as follows: under setting [5], 106 % of control; under setting [6], 95 % of control; under setting [7], 92 % of control.

In the case of `O=c1[nH]cccc1CC(O)(c1ccccc1)c1ccccc1`, the T/C is 101 % of control (dose: 100.0 mg/kg/injection, schedule: Q01DX001 (ip), vehicle: saline); 103 % of control (dose: 200.0 mg/kg/injection, schedule: Q01DX001 (ip), vehicle: saline); 100 % of control (dose: 400.0 mg/kg/injection, schedule: Q01DX001 (ip), vehicle: saline).

As to `C=CC1(C)C=C2CCC3C(C)(C(=O)O)CCCC3(C)C2CC1` (configuration not stated), the T/C runs as follows: under setting [8], 106 % of control; under setting [9], 95 % of control.

As for `C=CC1OC2OC(C)(C)OC2C1O` (configuration not stated), the T/C runs as follows: (dose: 5.0 mg/kg/injection, schedule: Q01DX001 (ip), vehicle: saline) 91 % of control; (dose: 10.0 mg/kg/injection, schedule: Q01DX001 (ip), vehicle: saline) 98 % of control; (dose: 18.7 mg/kg/injection, schedule: Q01DX001 (ip), vehicle: steriod suspending solution) 108 % of control; (dose: 20.0 mg/kg/injection, schedule: Q01DX001 (ip), vehicle: saline) 93 % of control; (dose: 37.5 mg/kg/injection, schedule: Q01DX001 (ip), vehicle: steriod suspending solution) 103 % of control; (dose: 40.0 mg/kg/injection, schedule: Q01DX001 (ip), vehicle: saline) 96 % of control. Besides, the T/C was 109 % of control (dose: 75.0 mg/kg/injection, schedule: Q01DX001 (ip), vehicle: steriod suspending solution); 98 % of control (dose: 150.0 mg/kg/injection, schedule: Q01DX001 (ip), vehicle: steriod suspending solution); 104 % of control (dose: 200.0 mg/kg/injection, schedule: Q01DX001 (ip), vehicle: steriod suspending solution); 103 % of control (dose: 400.0 mg/kg/injection, schedule: Q01DX001 (ip), vehicle: steriod suspending solution).

In the case of `C1CCC(N2CN(C3CCCCC3)CN(C3CCCCC3)C2)CC1`, the T/C was 97 % of control (dose: 100.0 mg/kg/injection, schedule: Q04DX002 (ip), vehicle: Klucel (hydroxypropylcellulose) (HPC)); 106 % of control (dose: 200.0 mg/kg/injection, schedule: Q04DX002 (ip), vehicle: Klucel (hydroxypropylcellulose) (HPC)); 115 % of control (dose: 400.0 mg/kg/injection, schedule: Q04DX002 (ip), vehicle: Klucel (hydroxypropylcellulose) (HPC)).

Take `CC(C)(C)CC1=C(O)c2ccccc2C(=O)C1=O`: the T/C by setting is: (dose: 50.0 mg/kg/injection, schedule: Q01DX001 (ip), vehicle: carboxymethylcellulose (CMC)) 114 % of control; (dose: 100.0 mg/kg/injection, schedule: Q01DX001 (ip), vehicle: carboxymethylcellulose (CMC)) 111 % of control; (dose: 200.0 mg/kg/injection, schedule: Q01DX001 (ip), vehicle: carboxymethylcellulose (CMC)) 105 % of control; (dose: 400.0 mg/kg/injection, schedule: Q01DX001 (ip), vehicle: carboxymethylcellulose (CMC)) 100 % of control.

Consider `O=S1(=O)CCC(NCCSS(=O)(=O)O)CC1`, for which the T/C was 96 % of control under setting [5], 96 % of control under setting [6] and 104 % of control under setting [7].

On to `COc1ccc(S(=O)(=O)F)cc1NC(=O)CCc1ccc(N2C(N)=NC(N)=NC2(C)C)cc1`, for which the T/C (dose: 100.0 mg/kg/injection, schedule: Q01DX001 (ip), vehicle: gum acacia) was 115 % of control and the T/C (dose: 200.0 mg/kg/injection, schedule: Q01DX001 (ip), vehicle: gum acacia) is 101 % of control.

In the case of `O=C(O)CCC(=O)Nc1ccccc1`, the T/C is 95 % of control under setting [1], 97 % of control under setting [3] and 101 % of control under setting [4].

For the compound `CC12CC[C]([Hg][I])(CC1)C2(C)C`, the T/C was 101 % of control and 103 % of control (dose: 6.25 mg/kg/injection, schedule: Q01DX009 (ip), vehicle: saline with Tween-80); 95 % of control and 110 % of control (dose: 12.5 mg/kg/injection, schedule: Q01DX009 (ip), vehicle: saline with Tween-80); 98 % of control and 211 % of control (dose: 25.0 mg/kg/injection, schedule: Q01DX009 (ip), vehicle: saline with Tween-80); 91 % of control (dose: 50.0 mg/kg/injection, schedule: Q01DX009 (ip), vehicle: saline with Tween-80).

As to `N#[N+]c1n[nH]nc1C(N)=O`, the T/C was 97 % of control (dose: 25.0 mg/kg/injection, schedule: Q01DX Z (ip), vehicle: carboxymethylcellulose (CMC)) and 95 % of control (dose: 35.0 mg/kg/injection, schedule: Q01DX Z (ip), vehicle: carboxymethylcellulose (CMC)).

Take `Cc1n[nH]c(=S)[nH]c1=S`: the T/C under setting [5] is 97 % of control.

In the case of `NCCCNCC1C(c2ccccc2)C1c1ccccc1` (configuration not stated), the T/C (dose: 25.0 mg/kg/injection, schedule: Q04DX002 (ip), vehicle: Klucel (hydroxypropylcellulose) (HPC)) was 100 % of control and the T/C (dose: 50.0 mg/kg/injection, schedule: Q04DX002 (ip), vehicle: Klucel (hydroxypropylcellulose) (HPC)) is 114 % of control.

For the compound `CCOc1ccc(Br)cc1/C=C1/NC(=O)NC1=O`, the T/C is 95 % of control (dose: 100.0 mg/kg/injection, schedule: Q01DX009 (ip), vehicle: saline with Tween-80); 102 % of control under setting [8]; 101 % of control (dose: 200.0 mg/kg/injection, schedule: Q01DX009 (ip), vehicle: saline with Tween-80); 97 % of control under setting [9]; 98 % of control (dose: 400.0 mg/kg/injection, schedule: Q01DX009 (ip), vehicle: saline with Tween-80); 97 % of control (dose: 400.0 mg/kg/injection, schedule: Q04DX002 (ip), vehicle: saline with Tween-80).

On to `CCOC(=O)C(C=O)C(C(=O)OCC)C(OCC)OCC` (configuration not stated), for which the T/C reads like this: under setting [5], 111 % of control; under setting [6], 104 % of control; under setting [7], 109 % of control.

With `Cc1ccc([N+](=O)[O-])cc1NC(=O)Nc1cccc(O)c1`, the T/C reads like this: (dose: 100.0 mg/kg/injection, schedule: Q01DX009 (ip), vehicle: Klucel (hydroxypropylcellulose) (HPC)) 95 % of control; under setting [2], 86 % of control; (dose: 400.0 mg/kg/injection, schedule: Q01DX009 (ip), vehicle: Klucel (hydroxypropylcellulose) (HPC)) 93 % of control.
